From ChEMBL document CHEMBL1144428 (J Med Chem, 2005)

biological target: T1, Prostaglandin G/H synthase 1 (Mus musculus, UniProt P22437)
T1 sequence (P22437 whole entry): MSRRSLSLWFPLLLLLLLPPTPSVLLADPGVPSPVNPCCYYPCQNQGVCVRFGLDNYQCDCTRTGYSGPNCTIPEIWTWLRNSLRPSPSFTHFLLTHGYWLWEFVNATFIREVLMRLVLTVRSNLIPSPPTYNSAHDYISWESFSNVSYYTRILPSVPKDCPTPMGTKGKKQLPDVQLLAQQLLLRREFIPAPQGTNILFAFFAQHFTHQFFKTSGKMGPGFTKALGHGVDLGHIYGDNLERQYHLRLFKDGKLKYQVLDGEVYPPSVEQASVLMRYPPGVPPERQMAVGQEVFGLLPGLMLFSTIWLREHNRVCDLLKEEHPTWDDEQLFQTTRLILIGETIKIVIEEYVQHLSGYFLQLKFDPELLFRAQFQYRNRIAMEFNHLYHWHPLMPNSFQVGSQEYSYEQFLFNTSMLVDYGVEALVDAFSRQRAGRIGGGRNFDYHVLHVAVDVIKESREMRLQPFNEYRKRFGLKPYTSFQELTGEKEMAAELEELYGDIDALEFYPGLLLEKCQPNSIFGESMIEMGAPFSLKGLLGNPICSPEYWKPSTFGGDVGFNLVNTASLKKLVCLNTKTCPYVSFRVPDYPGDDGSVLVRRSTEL
Description: In vitro inhibitory activity against Prostaglandin G/H synthase 1 in murine J774 cells

IC50 | SMILES
> 100 µM | Cc1c(CC(=O)O)cc(-c2ccc(S(C)(=O)=O)cc2)n1-c1ccc(C(F)(F)F)cc1
> 100 µM | CCOC(=O)C(=O)c1cc(-c2ccc(S(C)(=O)=O)cc2)n(-c2ccccc2)c1C
> 100 µM | CCOC(=O)C(=O)c1cc(-c2ccc(S(C)(=O)=O)cc2)n(-c2ccc(C(F)(F)F)cc2)c1C

Further lines, the molecule ahead of its results:

SMILES | IC50
CCOC(=O)C(=O)c1cc(-c2ccc(S(C)(=O)=O)cc2)n(-c2ccc(C)cc2)c1C | > 100 µM
CCOC(=O)Cc1cc(-c2ccc(S(C)(=O)=O)cc2)n(-c2ccccc2)c1C | > 100 µM
Cc1c(CC(=O)O)cc(-c2ccc(S(C)(=O)=O)cc2)n1-c1ccccc1 | > 100 µM
CCOC(=O)Cc1cc(-c2ccc(S(C)(=O)=O)cc2)n(-c2ccc(C(F)(F)F)cc2)c1C | > 100 µM
CCOC(=O)Cc1cc(-c2ccc(S(C)(=O)=O)cc2)n(-c2ccc(C)cc2)c1C | > 100 µM
Cc1ccc(-n2c(-c3ccc(S(C)(=O)=O)cc3)cc(CC(=O)O)c2C)cc1 | > 100 µM
